We go through 1 compound from patent publication US9416134B2 (Signal Pharmaceuticals, LLC, priority 2014, dated 2016).

Converted amounts (≈) assume the structure as drawn. Bounds are passed on as bounds.

Data set [1] in a line: Feasibility study on Form 1 (solubility in freeze-drying solvent mixtures). The class given is physicochemical. Particulars: thermodynamic from solid. How it is done: The freeze drying experiments were performed in 1.8 ml vials. Approximately 20 mg of starting material were weight in a HPLC vial and dissolved in five different solvent mixtures. […] These two experimental samples were freeze-dried in liquid nitrogen, followed by placing the vials in a freeze-dryer for 24 hours. The obtained solid was then harvested and analyzed by XRPD and digital imaging.
Grinding experiments were performed in stainless steel grinding vials, containing 2 stainless steel grinding balls and a frequency of 30 Hz. Following the experiments, XRPD analysis was performed to assess the crystallinity of the materials.

Data set [2] in a line: Water solubility of Form 1 (observation from slurry experiment in water). Format: physicochemical. How it is done: After the slurry time, the solids were separated from the solutions by centrifugation, harvested wet and analyzed by XRPD and digital imaging. The solids were then exposed to accelerated aging conditions (2 days at 40° C./75% RH), followed by XRPD re-analysis.
The slurry experiment in water for two weeks at room temperature produced the anhydrous starting material, Form 1.

Regarding `CCN1C(=O)CNc2ncc(-c3ccc(-c4nc[nH]n4)nc3C)nc21` [Form 1, 1-ethyl-7-(2-methyl-6-(1H-1,2,4-triazol-3-yl)pyridin-3-yl)-3,4-dihydropyrazino[2,3-b]pyrazin-2(1H)-one], the solubility in data set [1] (aqueous with cosolvent or surfactant or cyclodextrin, THF/Water (50/50), 25.1 mg in 1000 μL, not dissolved) was less than 25 mg/mL; in data set [1] (organic solvent or mixture, Ethanol/water (90/10), 24.2 mg in 400 μL, not dissolved) it was less than 60 mg/mL; in data set [1] (organic solvent or mixture, TFE/water (90/10), 20.7 mg in 1000 μL, dissolved), 21 mg/mL (≈ 62.4 mM); in data set [1] (organic solvent or mixture, TFE, 21.9 mg in 1000 μL, dissolved), 22 mg/mL (≈ 65.4 mM); in data set [1] (organic solvent or mixture, THF/water (90/10), 24.8 mg in 1000 μL, not dissolved), less than 25 mg/mL. Also, the Solubility in water entry in data set [2] is “practically insoluble”.

A word on the solubility: it is how much of the substance goes into solution per volume.
